Test results taken from article PMC9551036, “A selective and orally bioavailable VHL-recruiting PROTAC achieves SMARCA2 degradation in vivo” (Nature Communications, 2022).
Several values for one entry are separate records, joined by “and”; a condition that tells them apart may be missing. Equal values may be shown once. Read-outs that look alike come from different tables or passages of the source.

Key:
[1] = system: NCI-H1568 tumour xenograft; test: NCI-H1568 xenograft tumour growth; type: in vivo, mouse; conditions: for Tumor volume: qd, individual animals; for TGI: NCI-H1568 xenograft, day 17
Experimental: To establish subcutaneous tumours, mice were injected with 5 × 10^6 NCI-H1568 in PBS with 5% FCS or with 1 × 10^7 A549 cells in PBS with 5% FCS. Tumour diameters were measured with a caliper three times a week. The volume of each tumour (in mm^3) was calculated according to the formula [tumour volume = length × diameter^2 × π/6]. To monitor side effects of treatment, mice were inspected daily for abnormalities and body weight was determined daily after the start of treatment. Animals were sacrificed when the tumours reached a size of 1500 mm^3. Mice were randomised into treatment groups when the average tumour size reached ~210–220 mm^3. Group sizes were calculated individually for each tumour model based on tumour growth during model establishment experiments. A power analysis was performed using a sample size calculator (https://www.stat.ubc.ca/~rollin/stats/ssize/n2.html). For both models used in the study, 10 mice per group were used for each experiment. All administrations were dosed with 10 ml/kg (s.c. and oral). Control mice were dosed subcutaneously with 10% HP-β-CD in 50% Ringer solution and orally with 15% HP-β-CD, that means the control mouse treatment was corresponding to the solvent of the compounds. Compound 6 was dosed subcutaneously either in a d1-4 q3d, d6-8 q2d, d11-13 q2d treatment (Treatment 1) or a q3 or 4d treatment (Treatment 2).
For the evaluation of the statistical significance of tumour growth inhibition, a one-tailed nonparametric Mann-Whitney-Wilcoxon U-test was performed, based on the hypothesis that an effect would only be measurable in one direction (i.e. expectation of tumour inhibition but not tumour stimulation). Analysis was performed on the day indicated for each experiment. The p values obtained from the U-test were adjusted using the Bonferroni-Holm correction. By convention, p values ≤0.05 indicate significance of differences.

SMARCA2 = SMARCA2 (Homo sapiens, UniProt P51531); test: Ex vivo human whole blood assay, SMARCA2; type: cell-based; design: endogenous in cells; conditions: for HillSlope (best-fit value) / DC50: four-parameter fit; for Bottom (best-fit value) / Span (best-fit value) / Top (best-fit value): four-parameter fit of % protein remaining; for DC50: read-out: EC50 (best-fit value); for LogEC50 (best-fit value): log10 of concentration (mol/l)
Experimental: The assay was performed on human whole blood from three healthy donors, purchased from the Austrian Red Cross who always obtain samples under informed consent. […] Samples were pivoted at room temperature for 18 h in the dark. Subsequently, peripheral blood mononucleated cells (PBMCs) were isolated from individual aliquots using SepMate Tubes (StemCell) and Lymphoprep (StemCell) medium according to the manufacturer’s instructions and protein lysates were prepared using MSD Lysis buffer (Mesocale Discovery) supplemented with 1:100 Halt Phosphatase-Protease Inhibitor Cocktail (Thermo Fisher), 0.5 µl/ml benzonase (Novagen) and 10 mM DTT. SMARCA2 and SMARCA4 protein levels were determined using capillary electrophoresis (Bio-Techne) according to manufacturer’s instructions. Incubation with primary antibodies for SMARCA2 (Cell Signalling #11966 clone D9E8B RRID:AB_2797783 1:25), SMARCA4 (Abcam #ab110641 clone EPNCIR111A RRID:AB_10861578 1:25) and GAPDH (Abcam, #ab9485 RRID:AB_307275 1:1000) were performed for 30 min.

Chain of SMARCA2 (P51531 whole entry): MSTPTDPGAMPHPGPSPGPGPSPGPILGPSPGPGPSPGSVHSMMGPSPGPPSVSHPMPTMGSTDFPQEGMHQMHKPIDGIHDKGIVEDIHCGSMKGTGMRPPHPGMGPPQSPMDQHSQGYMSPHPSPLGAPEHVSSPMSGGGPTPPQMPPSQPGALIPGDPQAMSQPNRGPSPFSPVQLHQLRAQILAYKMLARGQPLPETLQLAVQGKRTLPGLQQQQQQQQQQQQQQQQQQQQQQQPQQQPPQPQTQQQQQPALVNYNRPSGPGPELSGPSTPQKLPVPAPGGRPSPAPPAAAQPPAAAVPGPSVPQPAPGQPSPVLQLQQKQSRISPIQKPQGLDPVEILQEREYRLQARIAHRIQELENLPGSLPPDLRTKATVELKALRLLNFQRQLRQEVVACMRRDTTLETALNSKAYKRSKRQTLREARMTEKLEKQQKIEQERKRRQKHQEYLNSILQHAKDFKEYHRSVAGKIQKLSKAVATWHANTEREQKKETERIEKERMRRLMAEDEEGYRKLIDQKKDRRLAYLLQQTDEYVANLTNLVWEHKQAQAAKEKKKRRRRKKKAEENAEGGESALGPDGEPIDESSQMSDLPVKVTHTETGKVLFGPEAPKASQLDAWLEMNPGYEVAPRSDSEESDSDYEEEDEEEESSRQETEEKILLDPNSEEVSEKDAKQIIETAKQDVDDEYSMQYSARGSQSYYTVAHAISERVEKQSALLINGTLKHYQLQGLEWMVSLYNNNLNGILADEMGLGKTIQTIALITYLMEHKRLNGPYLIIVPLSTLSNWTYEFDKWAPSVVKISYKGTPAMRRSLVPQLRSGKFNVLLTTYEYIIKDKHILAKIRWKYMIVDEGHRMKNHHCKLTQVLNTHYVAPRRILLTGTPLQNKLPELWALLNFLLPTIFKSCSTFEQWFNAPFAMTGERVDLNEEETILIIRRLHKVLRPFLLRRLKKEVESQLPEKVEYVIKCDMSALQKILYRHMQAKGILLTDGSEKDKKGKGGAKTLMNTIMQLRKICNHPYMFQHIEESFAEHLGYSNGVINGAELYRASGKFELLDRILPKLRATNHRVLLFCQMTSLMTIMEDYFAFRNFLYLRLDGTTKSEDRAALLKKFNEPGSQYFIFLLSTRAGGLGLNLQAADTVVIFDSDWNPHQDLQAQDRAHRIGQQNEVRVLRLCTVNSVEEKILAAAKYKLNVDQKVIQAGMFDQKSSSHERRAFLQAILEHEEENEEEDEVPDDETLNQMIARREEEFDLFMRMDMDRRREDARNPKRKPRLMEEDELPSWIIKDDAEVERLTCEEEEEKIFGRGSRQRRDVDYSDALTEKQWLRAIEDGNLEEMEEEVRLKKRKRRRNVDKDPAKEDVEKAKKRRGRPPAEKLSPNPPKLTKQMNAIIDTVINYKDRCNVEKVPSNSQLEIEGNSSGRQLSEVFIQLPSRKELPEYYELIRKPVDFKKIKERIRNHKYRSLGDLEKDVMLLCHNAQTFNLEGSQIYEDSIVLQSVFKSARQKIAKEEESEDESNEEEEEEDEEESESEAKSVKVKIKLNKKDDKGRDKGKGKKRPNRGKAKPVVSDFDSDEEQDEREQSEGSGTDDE

Cc1ncsc1-c1ccc([C@H](CCCCCN2CCC(c3ccc4c(c3)n(C3CCCC3)c3nc(=O)c5c(Br)cccc5n43)CC2)NC(=O)[C@@H]2C[C@@H](O)CN2C(=O)[C@@H](NC(=O)C2(F)CC2)C(C)(C)C)cc1 [compound 11]
Tumor volume ([1]; 30 mg/kg, Day 8): 349.89 mm3 and 236.13 mm3 and 336.08 mm3 and 316.23 mm3 and 320.2 mm3 and 407.12 mm3 and 452.47 mm3 and 403.17 mm3 and 435.99 mm3 and 529.54 mm3
Tumor volume ([1]; 30 mg/kg, Day 10): 411.87 mm3 and 252.06 mm3 and 344.92 mm3 and 322.48 mm3 and 362.94 mm3 and 435.47 mm3 and 364.71 mm3 and 506.51 mm3 and 466.2 mm3 and 503.81 mm3
Tumor volume ([1]; 30 mg/kg, Day 13): 502.78 mm3 and 248.86 mm3 and 360.62 mm3 and 361.29 mm3 and 382.81 mm3 and 518.2 mm3 and 443.39 mm3 and 514.01 mm3 and 521.41 mm3 and 705.33 mm3
Tumor volume ([1]; 30 mg/kg, Day 15): 496.47 mm3 and 228.27 mm3 and 504.98 mm3 and 354.71 mm3 and 479.1 mm3 and 517.42 mm3 and 432.15 mm3 and 457.1 mm3 and 602.75 mm3 and 762.29 mm3
Tumor volume ([1]; 30 mg/kg, Day 17): 650.01 mm3 and 225.32 mm3 and 455.8 mm3 and 341.13 mm3 and 487.7 mm3 and 435.26 mm3 and 381.47 mm3 and 461.01 mm3 and 569.17 mm3 and 686.8 mm3
Tumor volume ([1]; 100 mg/kg, Day 8): 173.57 mm3 and 358.5 mm3 and 211.9 mm3 and 263.4 mm3 and 447.51 mm3 and 347.41 mm3 and 368.98 mm3 and 478.34 mm3 and 381.06 mm3 and 544.49 mm3
Tumor volume ([1]; 100 mg/kg, Day 10): 207.49 mm3 and 318.53 mm3 and 166.3 mm3 and 272.68 mm3 and 439.29 mm3 and 419.1 mm3 and 347.63 mm3 and 427.12 mm3 and 399.48 mm3 and 552.76 mm3
Tumor volume ([1]; 100 mg/kg, Day 13): 196.26 mm3 and 416.62 mm3 and 227.85 mm3 and 452.58 mm3 and 404.81 mm3 and 268.98 mm3 and 439.16 mm3 and 468.07 mm3 and 536.7 mm3
Tumor volume ([1]; 100 mg/kg, Day 15): 224.98 mm3 and 458.86 mm3 and 260 mm3 and 554.09 mm3 and 490.11 mm3 and 263.77 mm3 and 439.21 mm3 and 536.89 mm3 and 543.63 mm3
Tumor volume ([1]; 100 mg/kg, Day 17): 221.9 mm3 and 357.16 mm3 and 324.28 mm3 and 608.34 mm3 and 580.36 mm3 and 307.51 mm3 and 368.83 mm3 and 566.83 mm3 and 599.71 mm3
Tumor volume ([1]; 100 mg/kg, Day 20): 230.91 mm3 and 452.52 mm3 and 264.14 mm3
TGI ([1]; 30 mg/kg p.o. daily): 64%
TGI ([1]; 100 mg/kg p.o. daily): 76%

Cc1ncsc1-c1ccc(C(CCC(C)CCN2CCC(c3ccc4c(c3)n(C3CCCC3)c3nc(=O)c5c(Br)cccc5n43)CC2)NC(=O)C2CC(O)CN2C(=O)C(NC(=O)C2(F)CC2)C(C)(C)C)cc1 (centres unmarked) [ACBI2]
% protein remaining, SMARCA2 (SMARCA2; Donor 1, log10[concentration (mol/l)] -6): 7.774% and 7.336% and 6.483%
% protein remaining, SMARCA2 (SMARCA2; Donor 1, log10[concentration (mol/l)] -6.47712): 27.8553% and 21.8081% and 18.9544%
% protein remaining, SMARCA2 (SMARCA2; Donor 1, log10[concentration (mol/l)] -6.95424): 43.7755% and 37.877% and 37.8583%
% protein remaining, SMARCA2 (SMARCA2; Donor 1, log10[concentration (mol/l)] -7.43136): 67.8936% and 57.3294% and 53.6432%
% protein remaining, SMARCA2 (SMARCA2; Donor 1, log10[concentration (mol/l)] -7.90848): 91.2009% and 93.1862% and 66.2599%
% protein remaining, SMARCA2 (SMARCA2; Donor 1, log10[concentration (mol/l)] -8.38561): 88.6362% and 87.296% and 66.0015%
% protein remaining, SMARCA2 (SMARCA2; Donor 1, log10[concentration (mol/l)] -8.86273): 73.7554% and 107.064% and 91.2397%
HillSlope (best-fit value) (SMARCA2; Donor 1 SMARCA2): -0.8748
Bottom (best-fit value) (SMARCA2; Donor 1 SMARCA2): -2.012%
Span (best-fit value) (SMARCA2; Donor 1 SMARCA2): 93.51%
Top (best-fit value) (SMARCA2; Donor 1 SMARCA2): 91.5%
DC50 (SMARCA2; Donor 1 SMARCA2): 91.1 nM
LogEC50 (best-fit value) (SMARCA2; Donor 1 SMARCA2): -7.04
% protein remaining, SMARCA2 (SMARCA2; Donor 2, log10[concentration (mol/l)] -6): 7.351% and 9.811% and 14.3342%
% protein remaining, SMARCA2 (SMARCA2; Donor 2, log10[concentration (mol/l)] -6.47712): 29.8249% and 32.3978% and 22.5296%
% protein remaining, SMARCA2 (SMARCA2; Donor 2, log10[concentration (mol/l)] -6.95424): 46.7755% and 52.5543% and 72.1634%
% protein remaining, SMARCA2 (SMARCA2; Donor 2, log10[concentration (mol/l)] -7.43136): 100.769% and 75.1426% and 71.9733%
% protein remaining, SMARCA2 (SMARCA2; Donor 2, log10[concentration (mol/l)] -7.90848): 102.968% and 75.392% and 80.5753%
% protein remaining, SMARCA2 (SMARCA2; Donor 2, log10[concentration (mol/l)] -8.38561): 67.4421% and 97.2734% and 86.3024%
% protein remaining, SMARCA2 (SMARCA2; Donor 2, log10[concentration (mol/l)] -8.86273): 85.0643% and 65.7852% and 85.6876%
HillSlope (best-fit value) (SMARCA2; Donor 2 SMARCA2): -1.742
Bottom (best-fit value) (SMARCA2; Donor 2 SMARCA2): 8.097%
Span (best-fit value) (SMARCA2; Donor 2 SMARCA2): 75.81%
Top (best-fit value) (SMARCA2; Donor 2 SMARCA2): 83.91%
DC50 (SMARCA2; Donor 2 SMARCA2): 172 nM
LogEC50 (best-fit value) (SMARCA2; Donor 2 SMARCA2): -6.765
% protein remaining, SMARCA2 (SMARCA2; Donor 3, log10[concentration (mol/l)] -6): 11.0787% and 14.9408% and 20.3816%
% protein remaining, SMARCA2 (SMARCA2; Donor 3, log10[concentration (mol/l)] -6.47712): 32.5224% and 22.883% and 24.5065%
% protein remaining, SMARCA2 (SMARCA2; Donor 3, log10[concentration (mol/l)] -6.95424): 43.403% and 45.8346% and 34.6157%
% protein remaining, SMARCA2 (SMARCA2; Donor 3, log10[concentration (mol/l)] -7.43136): 68.0983% and 70.9906% and 84.1093%
% protein remaining, SMARCA2 (SMARCA2; Donor 3, log10[concentration (mol/l)] -7.90848): 97.8509% and 97.5546% and 65.5857%
% protein remaining, SMARCA2 (SMARCA2; Donor 3, log10[concentration (mol/l)] -8.38561): 73.4464% and 119.725% and 73.7076%
% protein remaining, SMARCA2 (SMARCA2; Donor 3, log10[concentration (mol/l)] -8.86273): 88.433% and 116.976% and 110.86%
HillSlope (best-fit value) (SMARCA2; Donor 3 SMARCA2): -0.9991
Bottom (best-fit value) (SMARCA2; Donor 3 SMARCA2): 9.358%
Span (best-fit value) (SMARCA2; Donor 3 SMARCA2): 92.07%
Top (best-fit value) (SMARCA2; Donor 3 SMARCA2): 101.4%
DC50 (SMARCA2; Donor 3 SMARCA2): 70.3 nM
LogEC50 (best-fit value) (SMARCA2; Donor 3 SMARCA2): -7.153
SMARCA2 degradation in human whole blood (SMARCA2; three healthy donors, 18 h): significant degradation of SMARCA2
